Data published in US6194424A, “Arylacetamides and their use as medicaments” (Bayer Aktiengesellschaft, priority 1996, dated 2001).

Tested on: ApoB-100-associated lipoproteins (HepG2 cells)
Assay: Inhibition of the release of ApoB-100-associated lipoproteins from HepG2 liver cells (immunoassay of culture supernatant)
Assay type: cell-based
Settings: Homo sapiens, substance concentration at which light absorption (450 nm) is inhibited by 50% vs solvent control, read-out: Apo B IC50
Description: The test for detection of the inhibition of the release of ApoB-100-associated lipoproteins from liver cells was carried out in vitro using cultured liver cells, preferably using cells of the human line HepG2. These cells are cultured under standard conditions in medium for the culture of eucaryotic cells, preferably in RPMI 1640 using 10% foetal calf serum. HepG2 cells synthesize and secrete into the culture supernatant ApoB-100-associated lipoprotein particles, which in principle are of similar construction to the VLDL or LDL particles which are to be, found in the plasma.
These particles can be detected using an immunoassay for human LDL. This immunoassay is carried out using antibodies which have been induced under standard conditions in the rabbit to human LDL. The anti-LDL antibodies (rabbit anti-LDL-Ab) were purified by affinity chromatography on an immunosorbent using human LDL. These purified rabbit anti-LDL-Ab are adsorbed onto the surface of plastic. […] The immune complex on the plastic surface is detected using monoclonal antibodies which have been induced against human LDL and purified according to standard conditions. […] After acidification of the reaction mixture with H2 SO4, the specific light absorption at 450 nm is determined, which is a measure of the amount of ApoB-100-associated particles which have been secreted into the culture supernatant by the HepG2 cells. […]

Row | IC50 [nM] | Compound
1 | 8.2 | Cc1cc(C)c2c3ccccc3n(Cc3ccc([C@@H](C(=O)Nc4ccccc4)C4CCCC4)cc3)c2n1 [Example 2]
2 | 12.5 | CCCCCNC(=O)[C@H](c1ccc(Cn2c3ccccc3c3c(C)cc(C)nc32)cc1)C1CCCC1 [Example 20]
